Patent US10532085B2, “Methods for increasing intracellular activity of Hsp70” (Orphazyme A/S, priority 2010, dated 2020)

How the values were obtained:
Format in all cases: cell-based, Human
U2OS osteosarcoma cells = experiment: Endocytic uptake of Alexa Fluor-488-labelled BSA (BSA*); settings: 20 μg/mL BSA* for 24 h with 3000 nM rHsp70 vs BSA* alone
Experimental: FIG. 4: Hsp70 increases endocytic uptake of other molecules. Panel A: immortalized mouse embryonic fibroblasts (iMEF), either wildtype (WT) or transgenic for Hsp70 (TG) where incubated with 20 μg/mL Alexa Fluor-488-labelled BSA (BSA*) for 24 h. Endocytic uptake was verified by fluorescence microscopy (not shown). Cells where then harvested and analyzed for uptake of BSA*. […] Panel B: U2OS osteosarcoma cells where incubated with 20 μg/mL BSA* for 24 h either with 3000 nM rHsp70 or without as indicated. Endocytic uptake was verified by fluorescence microscopy (not shown). Cells where then harvested and analyzed for uptake of BSA*.

[1] = system: primary fibroblasts from Niemann-Pick Disease type A patient; experiment: Lysosomal cross-sectional area in NPDA patient fibroblasts; settings: pulse-chase, added at T=0, measured at 24 h, 48 h, 72 h and 1 week; patient id 83/24; effect reversible
Experimental: FIG. 5: Pulse-Chase experiment. rhHSP70 (recombinant human HSP70) was added to primary fibroblasts from Niemann-Pick Disease type A patient (patient id: 83/24) at T=0, measurements of lysosomal cross-sectional area were performed at 24 h, 48 h, 72 h and 1 week after administration. […] Conclusion: The effect of rhHSP70 is reversible and lasts ca. 1 week.
FIG. 6: Arimoclomol dose-titration experiment. Various concentrations of Arimoclomol (‘Ari’) added for 48 h to primary fibroblasts from Niemann-Pick Disease type A patient (patient id: 83/24). Read-out: lysosomal cross-sectional area.

U-2-OS cells = experiment: Lysosomal integrity upon photo-oxidation (acridine orange and blue light)
Experimental: FIG. 2: Lysosomal Hsp70 stabilizes lysosomal membranes. (a) Representative confocal images of U-2-OS cells incubated with 300 nM rHsp70-AF488 (green) for 24 h, fixed and stained for lysosomal integral membrane protein-1 (LIMP-1; red). For co-localization with other organelle markers see FIG. 3. (b) U-2-OS cells were incubated with 300 nM rHsp70-AF488 for 24 h before quantification of rHsp70-AF488 in membranes (memb.) and supernatant (sup.) obtained by repeated freeze/thaw cycles and centrifugation the light membrane fraction (LMF). […] (c) Representative still images of U-2-OS cells exposed to photo-oxidation (acridine orange and blue light). The loss of lysosomal integrity is visualized by the loss of red and increase in green staining. (d and e) U-2-OS cells were incubated with indicated recombinant proteins (300 nM) for 24 h, and analyzed for lysosomal integrity upon photo-oxidation. When indicated, cells were treated with indicated siRNAs for 48 h prior to the addition of recombinant proteins (e). The values represent means±SD (standard deviation) for three (d) or five (e) independent experiments. Representative immunoblots of indicated proteins from U-2-OS cells left untreated or treated with control or Hsp70 siRNAs are shown on the right. Scale bars: 20 μm (a and c).
WT- and Hsp70-MEFs were generated, immortalized and maintained as described in the art. Human NPDA fibroblasts (83/24) originate from a skin biopsy of a patient with hepatosplenomegaly. Recombinant proteins were generated using the pET-16b vector system and Ni^2+-affinity-purification (Novagen), and labeled with Alexa Fluor 488 according to manufacturers protocol (Molecular Probes). To analyze the lysosomal integrity, we developed a real time imaging method of cells stained with acridine orange, a metachromatic weak base that accumulates in the acidic compartment of the cells staining them red and sensitizing them to photo-oxidation. The photo-oxidation-induced loss of the lysosomal pH-gradient and leakage of acridine orange to the cytosol from individual lysosomes was quantified visually as “loss of red dots” in U2-O—S cells and as a decrease in red and an increase in green fluorescence by Zeiss LSM DUO Software in fibroblasts. The total and cytoplasmic (digitonin-extracted) cathepsin activities were measured in digitonin-treated samples using zFR-AFC (Enzyme System Products) probe as described in the art. The tryptophan fluorescence spectra and liposome 90° light scattering were analyzed in a HEPES buffer (20 mM HEPES, 0.1 mM EDTA, pH as indicated) essentially as described in the art. Surface plasmon resonance measurements were performed with immobilized LUVs using a BIAcore 2000 system as described in the art. Hsp70 siRNA (5′-[…]-3′) and a […] were transfected with Oligofectamine (Invitrogen). Immunodetection was performed with standard protocols. Apoptosis-like cell death and lysosomal membrane permeabilization were analyzed essentially as described in the art. ASM activity was analyzed by Amplex Red Sphingomyelinase Assay Kit (A12220) from Molecular Probes with modifications described in the art. Statistical analysis was performed using a two-tailed, paired Student's T-test and all groups of data were tested for the comparability of their variances using an F-test.
Sub-confluent cells incubated with 2 μg/ml acridine orange for 15 min at 37° C. were washed, irradiated and analyzed in Hanks balanced salt solution complemented with 3% fetal calf serum. Cells for single cell imaging were selected from 8 pre-defined areas of each well in transmitted light-mode after which the same cells were immediately visualized and exposed to blue light from USH102 100W mercury arc burner (Ushio electric) installed in a U-ULS100HG housing (Olympus) for 20 sec. Fluorescence microscopy was performed on Olympus IX-70 inverted microscope with a LCPlanF1 ×20 objective with NA=0.40. […]

NPDA cells = experiment: Lysosomal stability in NPDA cells
Experimental: BMP binds ASM with high affinity and stimulates its ability to hydrolyze sphingomyelin to ceramide and phosphorylcholine. […] In order to test whether ASM is responsible for the lysosome stabilizing effect we treated the cells with desipramine, a well characterized pharmacological ASM inhibitor. […] It should be noted that akin to rHsp70, also rASM localized to the lysosomes.
Sub-confluent cells incubated with 2 μg/ml acridine orange for 15 min at 37° C. were washed, irradiated and analyzed in Hanks balanced salt solution complemented with 3% fetal calf serum. Cells for single cell imaging were selected from 8 pre-defined areas of each well in transmitted light-mode after which the same cells were immediately visualized and exposed to blue light from USH102 100W mercury arc burner (Ushio electric) installed in a U-ULS100HG housing (Olympus) for 20 sec. Fluorescence microscopy was performed on Olympus IX-70 inverted microscope with a LCPlanF1 ×20 objective with NA=0.40. Loss of lysosomal pH gradient was quantified by counting the loss of intense red staining. A more elaborate method for assaying lysosomal integrity was developed to handle the larger lysosomal compartment of the various fibroblasts used in this study. […] The resulting timelapse movies where subsequently analysed by the integrated Zeiss LSM DUO software.

Substance: rHsp70: recombinant (human) heat shock protein 70; in some tests labelled with Alexa Fluor 488
- uptake of BSA* (U2OS osteosarcoma cells): significantly higher uptake of BSA*
- duration of the effect on lysosomal cross-sectional area [1]: ca. 1 week
- protection of lysosomes against photo-oxidation (lysosomal stabilization) (U-2-OS cells; recombinant proteins 300 nM, 24 h): protected lysosomes against photo-oxidation
- reversal of Hsp70 siRNA-induced sensitization to photo-oxidation (U-2-OS cells; siRNA 48 h prior to addition of recombinant protein (300 nM)): fully reverted
- stabilization of lysosomes in NPDA cells (NPDA cells): stabilize the lysosomes
